Assay results as given in patent US20090239868A1 (priority 2007, published 2009).

System: TGF-β induced PAI-1 production
Test: TGF-β induced PAI-1 production in HepG2 cells (Human Serpin E1/PAI-1 DuoSet)
Assay type: cell-based
Protocol: HepG2 cells were seeded on a 96-well culture plate by 2×10^4 cells/well, and were incubated for 24 hours in the MEM medium containing 1% NEAA (Non-Essential Amino Acids), 1 mM pyruvate, and 10% FBS. Then, the medium was changed to a MEM medium containing 1% NEAA, 1 mM pyruvate and 1% FBS, and the cells were further incubated for 24 hours. Subsequently, after the medium was changed to a MEM medium containing 1% NEAA, 1 mM pyruvate and 1% FBS, and then the cells were treated with the test substances (final concentration: 1 μM or 0.1 μM) for one hour, TGF-β1 (final concentration: 1 ng/mL) was added and the cells were further incubated for 24 hours. As controls, a culture solution added TGF-β1 only, and a culture solution cultured without neither the test substances nor TGF-β1 were prepared. After the incubation, the PAI-1 amount was measured using Human Serpin E1/PAI-1 DuoSet (R&D Systems). The PAI-1 amount when treated with TGF-β1 only being “100%”, and the PAI-1 amount when treated without neither the test substances nor TGF-β1 being “0%”, the PAI-1 inhibition ratios of each test substance were calculated.

## O=C(Nc1cc(C(F)(F)F)cc(C(F)(F)F)c1)c1ccccc1O [(4)]
Compound Concentration: 1 μM
  Inhibition Ratio (PAI-1): >90%

## O=C(Nc1cc(C(F)(F)F)cc(C(F)(F)F)c1)c1cc(F)ccc1O [(5)]
Compound Concentration: 0.1 μM
  Inhibition Ratio (PAI-1): 71.2%
Compound Concentration: 1 μM
  Inhibition Ratio (PAI-1): >90%

## O=C(Nc1cc(C(F)(F)F)cc(C(F)(F)F)c1)c1cc(Br)ccc1O [(6)]
Compound Concentration: 0.1 μM
  Inhibition Ratio (PAI-1): 82.3%
Compound Concentration: 1 μM
  Inhibition Ratio (PAI-1): >90%

## O=C(Nc1cc(C(F)(F)F)cc(C(F)(F)F)c1)c1cc(I)ccc1O [(7)]
Compound Concentration: 1 μM
  Inhibition Ratio (PAI-1): >90%

## O=C(Nc1cc(C(F)(F)F)cc(C(F)(F)F)c1)c1cc([N+](=O)[O-])ccc1O [(8)]
Compound Concentration: 0.1 μM
  Inhibition Ratio (PAI-1): 52.8%
Compound Concentration: 1 μM
  Inhibition Ratio (PAI-1): 85.9%

## N#Cc1ccc(O)c(C(=O)Nc2cc(C(F)(F)F)cc(C(F)(F)F)c2)c1 [(9)]
Compound Concentration: 0.1 μM
  Inhibition Ratio (PAI-1): 59.4%
Compound Concentration: 1 μM
  Inhibition Ratio (PAI-1): >90%

## Cc1ccc(O)c(C(=O)Nc2cc(C(F)(F)F)cc(C(F)(F)F)c2)c1 [(10)]
Compound Concentration: 1 μM
  Inhibition Ratio (PAI-1): 89.2%

## CC(C)(C)c1ccc(O)c(C(=O)Nc2cc(C(F)(F)F)cc(C(F)(F)F)c2)c1 [(11)]
Compound Concentration: 1 μM
  Inhibition Ratio (PAI-1): 70.5%

## CC(C)(/C=C/c1ccccc1)c1ccc(O)c(C(=O)Nc2cc(C(F)(F)F)cc(C(F)(F)F)c2)c1 [(14)]
Compound Concentration: 1 μM
  Inhibition Ratio (PAI-1): 86.6%

## CC(C)(C#Cc1ccccc1)c1ccc(O)c(C(=O)Nc2cc(C(F)(F)F)cc(C(F)(F)F)c2)c1 [(15)]
Compound Concentration: 1 μM
  Inhibition Ratio (PAI-1): >90%

## O=C(Nc1cc(C(F)(F)F)cc(C(F)(F)F)c1)c1cc(-c2ccccc2)ccc1O [(17)]
Compound Concentration: 1 μM
  Inhibition Ratio (PAI-1): 82.9%

## CC(C)(CCc1ccccc1)c1ccc(O)c(C(=O)Nc2cc(C(F)(F)F)cc(C(F)(F)F)c2)c1 [(18)]
Compound Concentration: 1 μM
  Inhibition Ratio (PAI-1): 55.4%

## O=C(Nc1cc(C(F)(F)F)cc(C(F)(F)F)c1)c1cc(C(F)(F)F)ccc1O [(19)]
Compound Concentration: 0.1 μM
  Inhibition Ratio (PAI-1): 62.2%
Compound Concentration: 1 μM
  Inhibition Ratio (PAI-1): >90%

## O=C(Nc1cc(C(F)(F)F)cc(C(F)(F)F)c1)c1cc(C(F)(F)C(F)(F)F)ccc1O [(20)]
Compound Concentration: 1 μM
  Inhibition Ratio (PAI-1): >90%

## CC(=O)c1ccc(O)c(C(=O)Nc2cc(C(F)(F)F)cc(C(F)(F)F)c2)c1 [(26)]
Compound Concentration: 1 μM
  Inhibition Ratio (PAI-1): 46.8%

## COC(=O)c1ccc(O)c(C(=O)Nc2cc(C(F)(F)F)cc(C(F)(F)F)c2)c1 [(28)]
Compound Concentration: 1 μM
  Inhibition Ratio (PAI-1): >90%

## CC(=O)Oc1ccccc1C(=O)Nc1cc(C(F)(F)F)cc(C(F)(F)F)c1 [(31)]
Compound Concentration: 1 μM
  Inhibition Ratio (PAI-1): 75.2%

## CC(=O)Oc1ccc(Cl)cc1C(=O)Nc1cc(C(F)(F)F)cc(C(F)(F)F)c1 [(32)]
Compound Concentration: 1 μM
  Inhibition Ratio (PAI-1): >90%

## O=C(Nc1cc(C(F)(F)F)cc(C(F)(F)F)c1)c1ccc(Cl)cc1O [(33)]
Compound Concentration: 0.1 μM
  Inhibition Ratio (PAI-1): 63.3%
Compound Concentration: 1 μM
  Inhibition Ratio (PAI-1): >90%

## O=C(Nc1cccc(C(F)(F)F)c1F)c1cc(Cl)ccc1O [(35)]
Compound Concentration: 1 μM
  Inhibition Ratio (PAI-1): >90%

## O=C(Nc1ccc(F)c(C(F)(F)F)c1)c1cc(Cl)ccc1O [(36)]
Compound Concentration: 1 μM
  Inhibition Ratio (PAI-1): >90%

## O=C(Nc1cc(F)cc(C(F)(F)F)c1)c1cc(Cl)ccc1O [(37)]
Compound Concentration: 1 μM
  Inhibition Ratio (PAI-1): >90%

## N#Cc1ccc(NC(=O)c2cc(Br)ccc2O)cc1C(F)(F)F [(39)]
Compound Concentration: 1 μM
  Inhibition Ratio (PAI-1): >90%

## Cc1c(NC(=O)c2cc(Cl)ccc2O)cccc1C(F)(F)F [(40)]
Compound Concentration: 1 μM
  Inhibition Ratio (PAI-1): >90%

## O=C(Nc1ccc(C(F)(F)F)cc1)c1cc(Cl)ccc1O [(43)]
Compound Concentration: 1 μM
  Inhibition Ratio (PAI-1): >90%

## O=C(Nc1cccc(Cl)c1)c1cc(Br)ccc1O [(44)]
Compound Concentration: 1 μM
  Inhibition Ratio (PAI-1): 82.4%

## O=C(Nc1ccc(Cl)cc1)c1cc(Br)ccc1O [(45)]
Compound Concentration: 1 μM
  Inhibition Ratio (PAI-1): >90%

## O=C(Nc1cc(F)cc(F)c1)c1cc(Br)ccc1O [(46)]
Compound Concentration: 1 μM
  Inhibition Ratio (PAI-1): >90%

## O=C(Nc1cc(Cl)cc(Cl)c1)c1ccccc1O [(47)]
Compound Concentration: 1 μM
  Inhibition Ratio (PAI-1): 35.6%

## O=C(Nc1cc(Cl)cc(Cl)c1)c1ccc(Cl)cc1O [(48)]
Compound Concentration: 1 μM
  Inhibition Ratio (PAI-1): >90%

## O=C(Nc1cc(Cl)c(Cl)c(Cl)c1)c1cc(Br)ccc1O [(49)]
Compound Concentration: 1 μM
  Inhibition Ratio (PAI-1): 70.7%

## Cc1cc(C)cc(NC(=O)c2cc(Br)ccc2O)c1 [(50)]
Compound Concentration: 1 μM
  Inhibition Ratio (PAI-1): 66.0%

## CC(C)(C)c1cc(NC(=O)c2cc(Cl)ccc2O)cc(C(C)(C)C)c1 [(51)]
Compound Concentration: 1 μM
  Inhibition Ratio (PAI-1): 42.8%

## O=C(Nc1cccc(-c2ccccc2)c1)c1cc(Cl)ccc1O [(52)]
Compound Concentration: 1 μM
  Inhibition Ratio (PAI-1): 81.0%

## COc1cc(NC(=O)c2cc(Cl)ccc2O)cc(-c2ccccc2)c1 [(53)]
Compound Concentration: 1 μM
  Inhibition Ratio (PAI-1): 52.4%

## CC(=O)Oc1ccccc1C(=O)Nc1cc(Cl)cc(Cl)c1 [(54)]
Compound Concentration: 1 μM
  Inhibition Ratio (PAI-1): 78.9%

## O=C(Nc1cc(C(F)(F)F)cc(C(F)(F)F)c1)c1c(O)cccc1O [(55)]
Compound Concentration: 1 μM
  Inhibition Ratio (PAI-1): >90%

## Cc1ccc(C(=O)Nc2cc(C(F)(F)F)cc(C(F)(F)F)c2)c(O)c1 [(56)]
Compound Concentration: 1 μM
  Inhibition Ratio (PAI-1): >90%

## O=C(Nc1cc(C(F)(F)F)cc(C(F)(F)F)c1)c1cc(Cl)cc(Cl)c1O [(57)]
Compound Concentration: 1 μM
  Inhibition Ratio (PAI-1): >90%

## O=C(Nc1cc(C(F)(F)F)cc(C(F)(F)F)c1)c1c(O)c(Cl)cc(Cl)c1Cl [(59)]
Compound Concentration: 1 μM
  Inhibition Ratio (PAI-1): >90%

## O=C(Nc1cc(C(F)(F)F)cc(C(F)(F)F)c1)c1c(O)cccc1F [(60)]
Compound Concentration: 1 μM
  Inhibition Ratio (PAI-1): 38.1%

## O=C(Nc1cc(C(F)(F)F)cc(C(F)(F)F)c1)c1cccc(Cl)c1O [(61)]
Compound Concentration: 1 μM
  Inhibition Ratio (PAI-1): >90%

## O=C(Nc1cc(OCC(F)(F)F)cc(C(F)(F)F)c1)c1cc(Cl)ccc1O [(63)]
Compound Concentration: 1 μM
  Inhibition Ratio (PAI-1): 79.5%

## CCCCCCOc1ccc(S(C)(=O)=O)cc1NC(=O)c1cc(Cl)ccc1O [(64)]
Compound Concentration: 1 μM
  Inhibition Ratio (PAI-1): 73.6%

## Cc1ccc(C(=O)C(C)(C)C)cc1NC(=O)c1cc(Cl)ccc1O [(65)]
Compound Concentration: 1 μM
  Inhibition Ratio (PAI-1): 85.5%

## Cc1ccc(-c2ccccc2)cc1NC(=O)c1cc(Cl)ccc1O [(66)]
Compound Concentration: 1 μM
  Inhibition Ratio (PAI-1): 84.1%

## O=C(Nc1cccc(C(F)(F)F)c1)c1cc(Cl)ccc1O [(67)]
Compound Concentration: 1 μM
  Inhibition Ratio (PAI-1): >90%

## O=C(Nc1cccc(OC(F)(F)F)c1)c1cc(Cl)ccc1O [(68)]
Compound Concentration: 1 μM
  Inhibition Ratio (PAI-1): >90%

## O=C(Nc1ccc(OC(F)(F)F)cc1)c1cc(Cl)ccc1O [(70)]
Compound Concentration: 1 μM
  Inhibition Ratio (PAI-1): >90%

## O=C(Nc1ccc(Cl)cc1Cl)c1cc(Cl)ccc1O [(71)]
Compound Concentration: 1 μM
  Inhibition Ratio (PAI-1): >90%

## CC(C)(C)c1ccc(NC(=O)c2cc(Cl)ccc2O)cc1 [(72)]
Compound Concentration: 1 μM
  Inhibition Ratio (PAI-1): 71.4%

## CCCCCCc1ccc(NC(=O)c2cc(Cl)ccc2O)cc1 [(73)]
Compound Concentration: 1 μM
  Inhibition Ratio (PAI-1): >90%

## O=C(Nc1ccc(C2CCCCC2)cc1)c1cc(Cl)ccc1O [(74)]
Compound Concentration: 1 μM
  Inhibition Ratio (PAI-1): 87.3%

## O=C(Nc1ccccc1Cl)c1cc(Cl)ccc1O [(77)]
Compound Concentration: 1 μM
  Inhibition Ratio (PAI-1): 74.3%

## CCCCc1ccc(NC(=O)c2cc(Cl)ccc2O)cc1 [(78)]
Compound Concentration: 1 μM
  Inhibition Ratio (PAI-1): 80.6%

## CC(C)c1cccc(NC(=O)c2cc(Cl)ccc2O)c1 [(81)]
Compound Concentration: 1 μM
  Inhibition Ratio (PAI-1): 40.0%

## O=C(Nc1cccc(SC(F)(F)F)c1)c1cc(Cl)ccc1O [(82)]
Compound Concentration: 1 μM
  Inhibition Ratio (PAI-1): >90%

## O=C(Nc1ccc(SC(F)(F)F)cc1)c1cc(Cl)ccc1O [(83)]
Compound Concentration: 1 μM
  Inhibition Ratio (PAI-1): >90%

## O=C(Nc1ccc(S(=O)(=O)C(F)(F)F)cc1)c1cc(Cl)ccc1O [(84)]
Compound Concentration: 1 μM
  Inhibition Ratio (PAI-1): >90%

## O=C(Nc1ccc(F)c(F)c1)c1cc(Cl)ccc1O [(85)]
Compound Concentration: 1 μM
  Inhibition Ratio (PAI-1): 84.0%

## CCC(C)c1ccc(NC(=O)c2cc(Cl)ccc2O)cc1 (stereo not shown) [(87)]
Compound Concentration: 1 μM
  Inhibition Ratio (PAI-1): 89.6%

## O=C(Nc1ccc(OC(F)F)cc1)c1cc(Cl)ccc1O [(90)]
Compound Concentration: 1 μM
  Inhibition Ratio (PAI-1): >90%

## CC(C)(C)c1cccc(NC(=O)c2cc(Cl)ccc2O)c1 [(92)]
Compound Concentration: 1 μM
  Inhibition Ratio (PAI-1): >90%

## O=C(Nc1cccc(S(=O)(=O)C(F)(F)F)c1)c1cc(Cl)ccc1O [(94)]
Compound Concentration: 1 μM
  Inhibition Ratio (PAI-1): >90%
